In PMC10819570, “Design, Synthesis, and Biological Evaluation of 2-Substituted Aniline Pyrimidine Derivatives as Potent Dual Mer/c-Met Inhibitors” (Molecules, 2024) one finds IC50, microsomal CLint and half-life data, which are given here for 24 compounds.

One data set concerns HepG2 cells. The data set is described as follows: Antiproliferation assay (CCK-8), HepG2. The settings on record: Homo sapiens, HepG2; CCK-8, 72 h; read-out: IC50 antiproliferative HepG2. It counts as cell-based. As to the method: (§1) The antiproliferative activities of the compounds against HepG2, MDA-MB-231, and HCT116 cell lines were tested by the standard CCK-8 method. Cell viability was measured by Cell Counting Kit-8 (Meilunbio, Dalian, China) according to the manufacturer’s instructions. Briefly, cancer cells were seeded into 96-well plates at a density of 2.5 × 10^3 cells per well. […] Subsequently, CCK-8 solution was added into each well and incubated for an additional 2 h. The absorbance at 450 nm was determined in each well using the BioTek Synergy HTX microplate reader. The assay was performed in triplicate, and each experiment was repeated three times.

The test system of a further data set is MDA-MB-231 cells. The data set can be described thus: Antiproliferation assay (CCK-8), MDA-MB-231. It counts as cell-based. The following applies: Homo sapiens, MDA-MB-231; CCK-8, 72 h; read-out: IC50 antiproliferative MDA-MB0231. On the procedure: as §1
A further data set has as its system HCT116 cells. The data set is described as follows: Antiproliferation assay (CCK-8), HCT116. It counts as cell-based. The following applies: Homo sapiens, HCT-116; CCK-8, 72 h; read-out: IC50 antiproliferative HCT116. On the procedure:
Cell viability was measured by Cell Counting Kit-8 (Meilunbio, Dalian, China) according to the manufacturer’s instructions. Briefly, cancer cells were seeded into 96-well plates at a density of 2.5 × 10^3 cells per well. […] Subsequently, CCK-8 solution was added into each well and incubated for an additional 2 h. The absorbance at 450 nm was determined in each well using the BioTek Synergy HTX microplate reader. The assay was performed in triplicate, and each experiment was repeated three times.

A further data set concerns the target T1, Mer kinase (Homo sapiens, UniProt Q12866).
T1 sequence (Q12866 21-999): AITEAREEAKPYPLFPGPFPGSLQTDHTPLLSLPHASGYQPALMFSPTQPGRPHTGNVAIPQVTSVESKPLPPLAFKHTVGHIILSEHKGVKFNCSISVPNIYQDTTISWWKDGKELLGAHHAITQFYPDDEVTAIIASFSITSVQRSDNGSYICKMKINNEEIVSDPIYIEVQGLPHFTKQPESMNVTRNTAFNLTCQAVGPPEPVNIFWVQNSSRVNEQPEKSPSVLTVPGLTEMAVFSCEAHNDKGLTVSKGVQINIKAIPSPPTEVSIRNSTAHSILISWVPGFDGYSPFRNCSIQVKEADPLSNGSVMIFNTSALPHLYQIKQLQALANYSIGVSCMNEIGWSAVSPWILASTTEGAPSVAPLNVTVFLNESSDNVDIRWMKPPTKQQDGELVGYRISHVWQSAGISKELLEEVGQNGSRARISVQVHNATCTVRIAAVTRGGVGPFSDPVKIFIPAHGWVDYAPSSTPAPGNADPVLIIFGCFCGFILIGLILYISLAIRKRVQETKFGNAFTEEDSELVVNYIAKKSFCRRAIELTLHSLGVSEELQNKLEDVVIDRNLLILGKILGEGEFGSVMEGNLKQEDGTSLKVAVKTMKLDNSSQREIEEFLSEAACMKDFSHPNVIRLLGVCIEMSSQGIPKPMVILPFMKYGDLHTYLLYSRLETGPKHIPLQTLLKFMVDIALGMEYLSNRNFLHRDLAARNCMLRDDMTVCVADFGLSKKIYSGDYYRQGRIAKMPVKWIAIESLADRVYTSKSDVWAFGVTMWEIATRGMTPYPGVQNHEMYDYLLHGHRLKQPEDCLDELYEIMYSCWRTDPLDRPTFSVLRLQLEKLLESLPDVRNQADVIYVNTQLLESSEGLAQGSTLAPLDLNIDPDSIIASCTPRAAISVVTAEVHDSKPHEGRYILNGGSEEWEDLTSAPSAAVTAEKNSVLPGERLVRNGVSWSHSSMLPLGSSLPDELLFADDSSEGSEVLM
The data set is described as follows: Mer kinase inhibitory activity assay (in vitro). The following applies: ATP 30 uM, enzyme 0.25 nM; means from three independent experiments. It counts as biochemical. As to the method: (§2) The in vitro inhibition assays of all final compounds against Mer and c-Met kinase were performed by Shanghai Bioduro Biological Technology Co., Ltd. (Shanghai, China). We prepared 1× buffer: HEPES 50 mM, MgCl2 10 mM, EGTA 1 mM, NP-40 0.0001%, DTT 2 mM; compound dilution with DMSO. For test compounds, a 100 × final concentration solution was prepared. About 100 nL compounds were transferred to a 384-well plate by using the automated liquid handler. The final DMSO% in the assay is 1%. Enzyme stock solutions were diluted with 1× assay buffer to a concentration of 0.5 nM to make a 2× working solution. […] Substrate solutions were diluted with 1× assay buffer. About 5 μL mix or buffer was added manually to the assay plate (ATP final 30 uM and TK-Sub-Biotin final 2 uM) using a multichannel pipette, spun down at 1000 rpm, and centrifuged for 30 s. After incubating at 30 °C for 60 min, 10 μL of detection solution was added to each well of the assay, mixed briefly with a centrifuge, and equilibrated for another 60 min. The luminescence was recorded using Envision.

The target in another data set is c-Met kinase (Homo sapiens, UniProt P08581). The data set is described as follows: c-Met kinase inhibitory activity assay (in vitro). It is filed as biochemical. The settings on record: ATP 30 uM, enzyme 0.25 nM; means from three independent experiments. As to the method: as §2
Data set [1] in a line: Liver microsome stability assay. It is filed as in vitro ADME. The settings on record: pH 7.4, human liver microsomes 0.2 mg/mL, test compound 1 μM, NADPH; for microsomal CLint at 1 μM: read-out: CL Human; for half-life at 1 μM: read-out: T1/2 Human. On the procedure: Stock solution (10 mM) of each of test compound was prepared in DMSO. The stock solution for each compound was then diluted into 200 μM with acetonitrile. Incubation mixtures were prepared in a total volume of 200 μL with final component concentrations as follows: 0.1 M PBS (pH 7.4), NADPH (2 mM), liver microsomes (0.2 mg/mL), and test compound (1 μM) or positive control. NAPDH was added after a 5 min preincubation of all other components at 37 °C, then pipette-mixed to achieve a homogenous suspension and immediately transferred 20 μL of the incubate as a 0 min sample to wells in a “Quenching” plate, followed by pipette-mixing. At 5, 15, 30, and 60 min, we pipette-mixed the incubate and serially transferred samples of 20 μL of the incubate per time point to wells in a separate “Quenching” plate, followed by pipette-mixing. In “Quenching” plates, 200 μL of acetonitrile was added with IS. The 96 wells were centrifuged at 4000 rpm for 10 min. Then 50 μL of supernatant was mixed with 50 μL of ddH2O and injected into the LC-MS/MS system for analysis.

Where “and” joins values, the source holds several entries; their conditions need not be identical. Equal entries are not always repeated.

c-Met kinase, sequence (P08581 25-1390): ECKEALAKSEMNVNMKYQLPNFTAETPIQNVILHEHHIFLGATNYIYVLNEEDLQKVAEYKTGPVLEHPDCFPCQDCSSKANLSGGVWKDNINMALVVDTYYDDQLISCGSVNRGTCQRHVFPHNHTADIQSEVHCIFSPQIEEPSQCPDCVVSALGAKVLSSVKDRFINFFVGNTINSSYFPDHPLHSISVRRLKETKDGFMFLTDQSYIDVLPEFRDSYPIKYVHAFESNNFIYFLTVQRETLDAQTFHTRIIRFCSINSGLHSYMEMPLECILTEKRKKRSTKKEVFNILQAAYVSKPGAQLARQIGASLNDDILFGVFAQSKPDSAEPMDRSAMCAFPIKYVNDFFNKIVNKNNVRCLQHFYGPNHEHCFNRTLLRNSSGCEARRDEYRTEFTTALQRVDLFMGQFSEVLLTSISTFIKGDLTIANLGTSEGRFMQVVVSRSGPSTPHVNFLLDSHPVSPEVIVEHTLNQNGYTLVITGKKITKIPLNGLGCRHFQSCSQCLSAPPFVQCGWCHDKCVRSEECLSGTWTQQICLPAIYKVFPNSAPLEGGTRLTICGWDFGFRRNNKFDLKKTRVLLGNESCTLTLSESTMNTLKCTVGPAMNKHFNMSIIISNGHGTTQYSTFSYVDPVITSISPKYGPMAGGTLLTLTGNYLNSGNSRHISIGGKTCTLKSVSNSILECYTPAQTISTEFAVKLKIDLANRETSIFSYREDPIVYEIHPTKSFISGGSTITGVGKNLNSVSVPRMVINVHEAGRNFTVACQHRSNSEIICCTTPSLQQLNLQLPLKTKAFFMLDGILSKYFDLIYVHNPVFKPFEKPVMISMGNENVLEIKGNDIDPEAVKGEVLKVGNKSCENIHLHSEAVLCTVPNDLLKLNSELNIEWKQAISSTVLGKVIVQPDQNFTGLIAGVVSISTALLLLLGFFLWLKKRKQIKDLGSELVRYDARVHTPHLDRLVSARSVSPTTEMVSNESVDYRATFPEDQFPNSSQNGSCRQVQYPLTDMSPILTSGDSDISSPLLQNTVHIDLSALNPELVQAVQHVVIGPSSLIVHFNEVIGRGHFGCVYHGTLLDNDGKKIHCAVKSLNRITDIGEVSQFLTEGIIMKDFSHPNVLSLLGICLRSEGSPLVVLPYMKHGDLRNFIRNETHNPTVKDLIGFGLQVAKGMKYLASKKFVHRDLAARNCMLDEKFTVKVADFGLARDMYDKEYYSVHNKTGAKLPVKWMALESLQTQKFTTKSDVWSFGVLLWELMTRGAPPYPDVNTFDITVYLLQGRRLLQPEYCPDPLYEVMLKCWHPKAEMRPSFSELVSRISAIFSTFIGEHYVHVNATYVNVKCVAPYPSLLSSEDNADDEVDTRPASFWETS

With `COc1cc2nccc(Oc3ccc(NC(=O)C4(C(=O)Nc5ccc(F)cc5)CC4)cc3)c2cc1OC` [Cabozantinib, reference compound], the IC50 with HepG2 cells came to 1720 nM; in the data set with MDA-MB-231 cells it was 29000 nM; in the data set on HCT116 cells it was 7820 nM.
As to `Cc1c(C(=O)Nc2ccc(Oc3ccnc(Nc4ccc(C(=O)NCCCN5CCOCC5)cc4)n3)cc2)c(=O)n(-c2ccccc2)n1C` [Compound 14a], the IC50 is 8.1 nM and 7.9 nM against Mer kinase; 151 ± 22.6 nM on c-Met kinase.
On to `Cc1c(C(=O)Nc2ccc(Oc3ccnc(Nc4ccc(NC(=O)CN5CCN(C)CC5)cc4)n3)cc2)c(=O)n(-c2ccccc2)n1C` [Compound 14b], for which the IC50 was 9.6 nM and 9.4 nM against Mer kinase; 179 ± 25.2 nM against c-Met kinase.
Regarding `Cc1c(C(=O)Nc2ccc(Oc3ccnc(Nc4ccc(NS(=O)(=O)c5ccccc5)cc4)n3)cc2)c(=O)n(-c2ccccc2)n1C` [Compound 14c], the figures for the IC50 at Mer kinase and at c-Met kinase were 166 ± 21.6 nM and > 1000 nM, respectively.
On the same counts, the results for `Cc1c(C(=O)Nc2ccc(Oc3ccnc(Nc4cccc(NC(=O)CN5CCN(C)CC5)c4)n3)cc2)c(=O)n(-c2ccccc2)n1C` [Compound 14d] are 24.2 ± 2.6 nM and 144 ± 17.3 nM.
On the same counts, the results for `Cc1c(C(=O)Nc2ccc(Oc3ccnc(Nc4cccc(C(=O)NCCCN5CCOCC5)c4)n3)cc2)c(=O)n(-c2ccccc2)n1C` [Compound 14e] are 40.3 ± 3.6 nM and 321 ± 25.6 nM.
The matching figures for `Cc1c(C(=O)Nc2ccc(Oc3ccnc(Nc4ccc(NC(=O)CN5CCN(C)CC5)c(C#N)c4)n3)cc2)c(=O)n(-c2ccccc2)n1C` [Compound 14g]: 7.1 ± 0.9 nM and 89.4 ± 12.6 nM.
Regarding `Cc1c(C(=O)Nc2ccc(Oc3ccnc(Nc4ccc(NC(=O)CN5CCN(C)CC5)c(F)c4)n3)cc2)c(=O)n(-c2ccccc2)n1C` [Compound 14h], the IC50 was found to be 12.5 ± 2 nM against Mer kinase and 74.9 ± 12.2 nM against c-Met kinase.
The matching figures for `Cc1c(C(=O)Nc2ccc(Oc3ccnc(Nc4ccc(N(C)C(=O)CN5CCN(C)CC5)cc4)n3)cc2)c(=O)n(-c2ccccc2)n1C` [Compound 14i]: 97.1 ± 12.7 nM and 224 ± 24.6 nM.
The matching figures for `CC(=O)N1CCN(c2ccc(Nc3nccc(Oc4ccc(NC(=O)C5(C(=O)Nc6ccc(F)cc6)CC5)cc4)n3)cc2)CC1` [Compound 18a]: 85.3 ± 6.8 nM and 15.4 ± 1.4 nM.
The matching figures for `O=C(Nc1ccc(F)cc1)C1(C(=O)Nc2ccc(Oc3ccnc(Nc4ccc(NS(=O)(=O)c5ccccc5)cc4)n3)cc2)CC1` [Compound 18b]: > 10000 nM and 941 ± 65.9 nM.
On to `O=C(NCCCN1CCOCC1)c1ccc(Nc2nccc(Oc3ccc(NC(=O)C4(C(=O)Nc5ccc(F)cc5)CC4)cc3)n2)cc1` [Compound 18d], for which the IC50 was found to be 42.4 ± 5.8 nM against Mer kinase and 52.7 ± 8.5 nM against c-Met kinase.
On the same counts, the results for `COCCNc1ccc(Nc2nccc(Oc3ccc(NC(=O)C4(C(=O)Nc5ccc(F)cc5)CC4)cc3)n2)cc1` [Compound 18e] are 159 ± 17.4 nM and 77.3 ± 13.1 nM.
The matching figures for `O=C(Nc1ccc(F)cc1)C1(C(=O)Nc2ccc(Oc3ccnc(Nc4ccc(CCC(O)c5ccccc5)cc4)n3)cc2)CC1` (stereo not drawn) [Compound 18f]: 463 ± 55.4 nM and > 1000 nM.
As to `CCN1CCN(CC(=O)Nc2ccc(Nc3nccc(Oc4ccc(NC(=O)C5(C(=O)Nc6ccc(F)cc6)CC5)cc4)n3)cc2)CC1` [Compound 18g], the IC50 against Mer kinase is 20.3 ± 3.2 nM; at c-Met kinase, 48.7 ± 8.7 nM.
The matching figures for `CC(C)N1CCN(CC(=O)Nc2ccc(Nc3nccc(Oc4ccc(NC(=O)C5(C(=O)Nc6ccc(F)cc6)CC5)cc4)n3)cc2)CC1` [Compound 18h]: 12.4 ± 1.9 nM and 42.6 ± 8.1 nM.
For `O=C(CN1CCN(CC2CC2)CC1)Nc1ccc(Nc2nccc(Oc3ccc(NC(=O)C4(C(=O)Nc5ccc(F)cc5)CC4)cc3)n2)cc1` [Compound 18i], the IC50 is 30.9 ± 5.3 nM on Mer kinase and 77.1 ± 15.2 nM against c-Met kinase.
On the same counts, the results for `CC(=O)N1CCN(CC(=O)Nc2ccc(Nc3nccc(Oc4ccc(NC(=O)C5(C(=O)Nc6ccc(F)cc6)CC5)cc4)n3)cc2)CC1` [Compound 18j] are 57.5 ± 9.4 nM and 32.8 ± 5.8 nM.
The matching figures for `CN1CCN(CC(=O)Nc2ccc(Nc3nccc(Oc4ccc(NC(=O)C5(C(=O)Nc6ccc(F)cc6)CC5)cc4)n3)cc2C#N)CC1` [Compound 18k]: 10.2 ± 1.4 nM and 51.2 ± 8 nM.
`CN1CCN(CC(=O)Nc2ccc(Nc3nccc(Oc4ccc(NC(=O)C5(C(=O)Nc6ccc(F)cc6)CC5)cc4)n3)cc2F)CC1` [Compound 18l] registered an IC50 against Mer kinase of 18.3 ± 2.7 nM. Besides, at c-Met kinase, the concentration for half-maximal inhibition (IC50) is 48.7 ± 8.2 nM. Moreover, in data set [1], the microsomal CLint at 1 μM was 360 µL/min/mg and the half-life at 1 μM is 9.6 min.
Turning to `CN1CCN(CC(=O)N(C)c2ccc(Nc3nccc(Oc4ccc(NC(=O)C5(C(=O)Nc6ccc(F)cc6)CC5)cc4)n3)cc2)CC1` [Compound 18m], the values for the IC50 against Mer kinase and at c-Met kinase were 126 ± 17.8 nM and 74.4 ± 13.5 nM, respectively.
At Mer kinase, `CC(C(=O)Nc1ccc(Nc2nccc(Oc3ccc(NC(=O)C4(C(=O)Nc5ccc(F)cc5)CC4)cc3)n2)cc1)N1CCN(C)CC1` (stereo not drawn) [Compound 18n] displayed an IC50 of 31.6 ± 5.4 nM. The IC50 on c-Met kinase stood at 30.7 ± 4.8 nM. Further, in data set [1], the microsomal CLint at 1 μM was determined as 290 µL/min/mg and the half-life at 1 μM is 11.9 min.
On the same counts, the results for `CN1CCN(CC(=O)Nc2cccc(Nc3nccc(Oc4ccc(NC(=O)C5(C(=O)Nc6ccc(F)cc6)CC5)cc4)n3)c2)CC1` [Compound 18o] are 24.8 ± 3.3 nM, 39.8 ± 6.6 nM, 400 µL/min/mg and 8.6 min.
For `C[C@]12CC[C@H]3[C@@H](CCC4=CC(=O)CC[C@@]43C)[C@@H]1CC[C@@H]2O` [Testosterone, reference compound], the half-life at 1 μM in data set [1] is 32.1 min.

As usually defined, the IC50 is the point on the concentration scale where inhibition reaches its midpoint.
